Experimental data as given in patent publication EP2929785A1, “A PLA inhibitor for inhibition of fat absorption” (PAT GmbH, priority 2014, dated 2015).
pIC50: −log10 of the molar value.

Columns and labels:
[1] = test system: retrogradely perfused mouse livers; test: Single pass [3H]oleate extraction rates in retrogradely perfused mouse livers; assay type: in vivo, C57BL/6 mice; details: mice pretreated i.p. 23 mg/kg, 1 h
Method: Twelve-week-old female C57BL/6 mice were injected intraperitoneally with 1 ml UDCA-LPE [ChemCon, Freiburg, Germany] (Chamulitrat W. et al. Hepatology. 2009; 50: 143-154) at 23 mg/kg or phosphate-buffered saline (PBS) as a control with 5% Tween 80. […] Retrograde perfusion of oxygenized 100 µM albumin (A4503, Sigma, Munich, Germany) in PBS was performed at 37°C and a flow rate of 4 ml/min, with the perfusate collected from the opened portal vein (Hoffmann MJ et al. Hepatology. 2012; 55: 1369-1378). After equilibration for 5 min, a 1 ml bolus of 200 µM [3H]oleate (Perkin Elmer, Rodgau, Germany) along with 100 µM [methyl-14 C]albumin (Biotrend, Cologne, Germany) or 100 µM [14C]sucrose (Perkin Elmer) was introduced through the stopcock and the perfusion was allowed to continue for 5 min. Outflow samples were collected every 15 s and single pass extraction rates were determined as previously described (Hoffmann MJ et al. Toxicol. Sciences. 1999; 49: 40-47).

HepG2 cells = test: Fatty acid ([3H]oleate:albumin) influx in HepG2 cells; assay type: cell-based, human
wild-type hepatocytes = test: Fatty acid influx in primary hepatocytes from wild-type mice; assay type: cell-based; details: UDCA-LPE pretreatment (Fig. 4B)
iPLA2ß-/- hepatocytes = test: Fatty acid influx in primary hepatocytes from iPLA2ß-/- mice; assay type: cell-based; details: UDCA-LPE pretreatment (Fig. 4B)
[2] = test system: fatty acid uptake complex components; test: Transcript levels of fatty acid uptake complex components by semi-quantitative RT-PCR in HepG2 cells; assay type: cell-based, human; details: after 1 h of treatment, UDCA-LPE 50 µM (Fig. 6)
Text: The following forward and reverse primers (Sigma) were used for RT-PCR: iPLA2ß, [NT] (SEQ ID NO: 1) and [NT] (SEQ ID NO: 2); CD36, [NT] (SEQ ID NO: 3) and [NT] (SEQ ID NO: 4); […] (SEQ ID NO: 5) and [NT] (SEQ ID NO: 6); and caveolin-1, [NT] (SEQ ID NO: 7) and reverse [NT] (SEQ ID NO: 8). The primers for FATP4 and ß-actin (internal control) were the same as those previously used as described in […] et al. Am J Physiol Endocrinol Metab 2011; 301, 785-796.

CaCo2 cells = test: Fatty acid influx in CaCo2 cells; assay type: cell-based
[3] = target: T1, four-protein fatty acid uptake complex within the DRM-domain of CaCo2 plasma membranes (Homo sapiens, UniProt O60733); test: Disintegration of the fatty acid uptake complex in CaCo2 cells; assay type: cell-based
T1 construct: the DRM domains of the plasma membrane were isolated from native CaCo2 cells; endogenous in cells; host or cells: CaCo2
T1 sequence (O60733 1-806): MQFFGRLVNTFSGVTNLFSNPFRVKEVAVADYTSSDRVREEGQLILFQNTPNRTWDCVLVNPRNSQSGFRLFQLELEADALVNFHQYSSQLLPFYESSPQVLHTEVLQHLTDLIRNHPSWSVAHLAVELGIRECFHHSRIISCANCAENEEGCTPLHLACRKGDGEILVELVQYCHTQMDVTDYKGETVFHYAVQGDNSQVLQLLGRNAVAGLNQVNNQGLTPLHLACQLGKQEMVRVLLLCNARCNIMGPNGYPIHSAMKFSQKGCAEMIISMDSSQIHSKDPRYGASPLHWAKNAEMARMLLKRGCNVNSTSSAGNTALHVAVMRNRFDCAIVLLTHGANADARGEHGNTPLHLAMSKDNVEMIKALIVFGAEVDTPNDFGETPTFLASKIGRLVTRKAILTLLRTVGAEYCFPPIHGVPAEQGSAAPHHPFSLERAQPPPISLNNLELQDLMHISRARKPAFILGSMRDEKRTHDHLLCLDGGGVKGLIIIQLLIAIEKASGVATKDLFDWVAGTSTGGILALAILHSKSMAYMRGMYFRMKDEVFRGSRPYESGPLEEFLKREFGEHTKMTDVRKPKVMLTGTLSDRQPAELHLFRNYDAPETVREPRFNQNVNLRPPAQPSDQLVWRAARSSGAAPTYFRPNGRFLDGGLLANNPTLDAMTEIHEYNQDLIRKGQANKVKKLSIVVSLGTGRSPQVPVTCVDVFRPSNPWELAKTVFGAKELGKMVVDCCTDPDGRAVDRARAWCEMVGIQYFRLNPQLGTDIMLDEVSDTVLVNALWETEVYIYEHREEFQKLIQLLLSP
Method: All other experiments were assessed with CaCo2 cells as described in Ex. 1, mutatis mutandis.

pIC50 (HepG2 cells; 1-h treatment with increasing concentrations (Fig. 2A), read-out: inhibition of fatty acid influx (IC50)): 4.33
minimal concentration for disintegration of the complex [3]: 50 µM
exposure time for disintegration of the complex ([3]; 50 µM): 30 min
Substance: ursodeoxycholatelysophosphatidylethanolamide [UDCA-LPE]
cumulative proportion of the [3H]oleate extracted ([1]; 200 µM [3H]oleate:albumin (2:1)): 0.30 ± 0.03
inhibition of fatty acid influx ([1]; vs controls): 34%
time until fatty acid influx reached a minimum (HepG2 cells; UDCA-LPE 100 µM (Fig. 1A)): 60 min
time after withdrawal until original fatty acid influx rate was restored (HepG2 cells; after UDCA-LPE withdrawal (Fig. 1A)): 6 h
Km (HepG2 cells; pretreatment UDCA-LPE 100 µM, 1 h or MAFP 150 µM, 1 h): 0.251 µM
Vmax of [3H]oleate influx (HepG2 cells; pretreatment UDCA-LPE 100 µM, 1 h or MAFP 150 µM, 1 h, control 61.80): 28.43 nmol/mg protein/min
fatty acid influx (wild-type hepatocytes): inhibited
fatty acid influx (iPLA2ß-/- hepatocytes): not
transcript levels of all fatty acid uptake complex components [2]: < 10 % of initial values
apical fatty acid influx (CaCo2 cells; CaCo2 cells cultured 21 days (polarized), pretreatment at the apical site): significantly inhibited
inhibition of fatty acid influx (CaCo2 cells; UDCA-LPE 100 µM, 1 h, scrambled siRNA control conditions): > 50%
fatty acid influx kinetics (CaCo2 cells; preincubation of CaCo2 cells): non-competitive inhibition
